According to ChEMBL document CHEMBL5724914, “Linking interpersonal differences in gut microbiota composition and drug biotransformation activity” (2024):

Tests used:
[1] = The drug is tested on Z-006 corresponding to mouse gut metagenome with ENA study accession number: PRJEB37062 and ENA sample accession number: ERS12561806 for biotransformation under anaerobic condition. The drug concentrations were measured over 9 timepoints collected between 0 and 24 hours of incubation by liquid-chromatography-coupled mass spectrometry (LC–MS); conditions: 2 µM
[2] = human gut metagenome, 24 h, 2 µM
[3] = The drug is tested on Z-005 corresponding to metagenome with ENA study accession number: PRJEB37062 and ENA sample accession number: ERS12561805 for biotransformation under anaerobic condition. The drug concentrations were measured over 9 timepoints collected between 0 and 24 hours of incubation by liquid-chromatography-coupled mass spectrometry (LC–MS); conditions: 2 µM
[4] = human gut metagenome, 24 h, 2 µM; remark: listed apart in the source
[5] = human gut metagenome, 24 h, 2 µM; remark: listed apart in the source
[6] = human gut metagenome, 24 h, 2 µM; remark: listed apart in the source
[7] = The drug is tested on Z-019 corresponding to rat gut metagenome with ENA study accession number: PRJEB37062 and ENA sample accession number: ERS12561818 for biotransformation under anaerobic condition. The drug concentrations were measured over 9 timepoints collected between 0 and 24 hours of incubation by liquid-chromatography-coupled mass spectrometry (LC–MS); conditions: 2 µM
[8] = The drug is tested on Z-002 corresponding to rabbit gut metagenome with ENA study accession number: PRJEB37062 and ENA sample accession number: ERS12561802 for biotransformation under anaerobic condition. The drug concentrations were measured over 9 timepoints collected between 0 and 24 hours of incubation by liquid-chromatography-coupled mass spectrometry (LC–MS); conditions: 2 µM
[9] = human gut metagenome, 24 h, 2 µM; remark: listed apart in the source
[10] = The drug is tested on Z-012 corresponding to metagenome with ENA study accession number: PRJEB37062 and ENA sample accession number: ERS12561812 for biotransformation under anaerobic condition. The drug concentrations were measured over 9 timepoints collected between 0 and 24 hours of incubation by liquid-chromatography-coupled mass spectrometry (LC–MS); conditions: 2 µM
[11] = human gut metagenome, 24 h, 2 µM; remark: listed apart in the source
[12] = human gut metagenome, 24 h, 2 µM; remark: listed apart in the source
[13] = The drug is tested on Z-020 corresponding to rabbit gut metagenome with ENA study accession number: PRJEB37062 and ENA sample accession number: ERS12561819 for biotransformation under anaerobic condition. The drug concentrations were measured over 9 timepoints collected between 0 and 24 hours of incubation by liquid-chromatography-coupled mass spectrometry (LC–MS); conditions: 2 µM
[14] = human gut metagenome, 24 h, 2 µM; remark: listed apart in the source
[15] = The drug is tested on Z-021 corresponding to metagenome with ENA study accession number: PRJEB37062 and ENA sample accession number: ERS12561820 for biotransformation under anaerobic condition. The drug concentrations were measured over 9 timepoints collected between 0 and 24 hours of incubation by liquid-chromatography-coupled mass spectrometry (LC–MS); conditions: 2 µM
[16] = human gut metagenome, 24 h, 2 µM; remark: listed apart in the source
[17] = human gut metagenome, 24 h, 2 µM; remark: listed apart in the source
[18] = human gut metagenome, 24 h, 2 µM; remark: listed apart in the source
[19] = The drug is tested on Z-023 corresponding to metagenome with ENA study accession number: PRJEB37062 and ENA sample accession number: ERS12561822 for biotransformation under anaerobic condition. The drug concentrations were measured over 9 timepoints collected between 0 and 24 hours of incubation by liquid-chromatography-coupled mass spectrometry (LC–MS); conditions: 2 µM
[20] = human gut metagenome, 24 h, 2 µM; remark: listed apart in the source
Also: call rule not given here.

Compound	Bacterial Biotransformation [1]	Bacterial Biotransformation [2]	Bacterial Biotransformation [3]	Bacterial Biotransformation [4]	Bacterial Biotransformation [5]	Bacterial Biotransformation [6]	Bacterial Biotransformation [7]	Bacterial Biotransformation [8]	Bacterial Biotransformation [9]	Bacterial Biotransformation [10]	Bacterial Biotransformation [11]	Bacterial Biotransformation [12]	Bacterial Biotransformation [13]	Bacterial Biotransformation [14]	Bacterial Biotransformation [15]	Bacterial Biotransformation [16]	Bacterial Biotransformation [17]	Bacterial Biotransformation [18]	Bacterial Biotransformation [19]	Bacterial Biotransformation [20]
Cc1cc2c(cc1S(N)(=O)=O)S(=O)(=O)CCC2	Compound NOT metabolized	Compound NOT metabolized	Compound NOT metabolized	Compound NOT metabolized	Compound NOT metabolized	Compound NOT metabolized	Compound NOT metabolized	Compound NOT metabolized	Compound NOT metabolized	Compound NOT metabolized	Compound NOT metabolized	Compound NOT metabolized	Compound NOT metabolized	Compound NOT metabolized	Compound NOT metabolized	Compound NOT metabolized	Compound NOT metabolized	Compound NOT metabolized	Compound NOT metabolized	Compound NOT metabolized
CN1CCc2c(c3ccccc3n2Cc2ccccc2)C1.CN1CCc2c(c3ccccc3n2Cc2ccccc2)C1.O=S(=O)(O)c1cccc2c(S(=O)(=O)O)cccc12	Compound NOT metabolized	Compound metabolized	Compound NOT metabolized	Compound NOT metabolized	Compound metabolized	Compound NOT metabolized	Compound NOT metabolized	Compound NOT metabolized	Compound metabolized	Compound NOT metabolized	Compound NOT metabolized	Compound metabolized	Compound NOT metabolized	Compound NOT metabolized	Compound NOT metabolized	Compound NOT metabolized	Compound NOT metabolized	Compound NOT metabolized	Compound NOT metabolized	Compound metabolized
CN1CC(=O)N2[C@H](c3ccc4c(c3)OCO4)c3[nH]c4ccccc4c3C[C@@H]2C1=O	Compound NOT metabolized	Compound metabolized	Compound NOT metabolized	Compound metabolized	Compound metabolized	Compound NOT metabolized	Compound NOT metabolized	Compound metabolized	Compound metabolized	Compound metabolized	Compound metabolized	Compound metabolized	Compound NOT metabolized	Compound metabolized	Compound metabolized	Compound metabolized	Compound metabolized	Compound metabolized	Compound metabolized	Compound metabolized
COc1cc2nc(N(C)CCCNC(=O)C3CCCO3)nc(N)c2cc1OC (stereo not given) [ALFUZOSIN]	Compound NOT metabolized	Compound NOT metabolized	Compound NOT metabolized	Compound metabolized	Compound NOT metabolized	Compound NOT metabolized	Compound NOT metabolized	Compound metabolized	Compound metabolized	Compound NOT metabolized	Compound metabolized	Compound metabolized	Compound NOT metabolized	Compound metabolized	Compound NOT metabolized	Compound NOT metabolized	Compound metabolized	Compound metabolized	Compound NOT metabolized	Compound metabolized
NC12CC3CC(CC(C3)C1)C2 [AMANTADINE]	Compound NOT metabolized	Compound NOT metabolized	Compound NOT metabolized	Compound NOT metabolized	Compound NOT metabolized	Compound NOT metabolized	Compound NOT metabolized	Compound NOT metabolized	Compound NOT metabolized	Compound NOT metabolized	Compound NOT metabolized	Compound NOT metabolized	Compound NOT metabolized	Compound NOT metabolized	Compound NOT metabolized	Compound NOT metabolized	Compound NOT metabolized	Compound NOT metabolized	Compound NOT metabolized	Compound NOT metabolized
CC(C)(C#N)c1cc(Cn2cncn2)cc(C(C)(C)C#N)c1 [ANASTROZOLE]	Compound NOT metabolized	Compound NOT metabolized	Compound NOT metabolized	Compound NOT metabolized	Compound metabolized	Compound NOT metabolized	Compound NOT metabolized	Compound metabolized	Compound NOT metabolized	Compound NOT metabolized	Compound NOT metabolized	Compound NOT metabolized	Compound NOT metabolized	Compound NOT metabolized	Compound metabolized	Compound NOT metabolized	Compound NOT metabolized	Compound NOT metabolized	Compound metabolized	Compound metabolized
